These results are taken from patent publication US5279836A, “Topical use of calcitonin for the preparation of medications in senile idiopathic cataract and a pharmaeutical composition thereof” (Mediator S.R.L., priority 1991, dated 1994).

Positions of bridges follow the written chain, without caps; N, C: chain ends. Non-standard residues stand in square brackets, D forms with d. Residues, ends and D or L forms follow the SMILES beside them. Asu = N[C@@H](CCCCCC(=O)O)C(=O)O

The test system of data set [1] is corneal epithelium. Briefly: Systemic and local (corneal) tolerance after topical instillation of the collyrium. To be noted: rabbits, topical collyrium 5 U.MRC; 2% fluorescein test. Type of data set: in vivo, rabbit. As for the experimental part: After the Keratocentesis a new test of the corneal surface integrity was performed with instillation of 2% fluorescein and washing with physiological solution.

For data set [2], the system named is sheep lens. Particulars: sheep lens in vitro, incubation; cited from earlier work.

For `CC(C)C[C@H](NC(=O)[C@H](CCCCN)NC(=O)CNC(=O)[C@H](CC(C)C)NC(=O)[C@@H](NC(=O)[C@@H]1CCCCCC(=O)N[C@@H](CO)C(=O)N[C@@H](CC(N)=O)C(=O)N[C@@H](CC(C)C)C(=O)N[C@@H](CO)C(=O)N[C@@H]([C@@H](C)O)C(=O)N1)C(C)C)C(=O)N[C@@H](CO)C(=O)N[C@@H](CCC(N)=O)C(=O)N[C@@H](CCC(=O)O)C(=O)N[C@@H](CC(C)C)C(=O)N[C@@H](Cc1c[nH]cn1)C(=O)N[C@@H](CCCCN)C(=O)N[C@@H](CC(C)C)C(=O)N[C@@H](CCC(N)=O)C(=O)N[C@H](C(=O)N[C@@H](Cc1ccc(O)cc1)C(=O)N1CCC[C@H]1C(=O)N[C@@H](CCCNC(=N)N)C(=O)N[C@H](C(=O)N[C@@H](CC(=O)O)C(=O)N[C@H](C(=O)NCC(=O)N[C@@H](C)C(=O)NCC(=O)N[C@H](C(=O)N1CCC[C@H]1C(N)=O)[C@@H](C)O)C(C)C)[C@@H](C)O)[C@@H](C)O` [elcatonin] (SNLST[Asu]VLGKLSQELHKLQTYPRTDVGAGTP-NH2; lactam N-6), in data set [1], the “systemic phenomena of drug intolerance and local toxic phenomena (corneal epithelium)” value is on record as “No animal showed systemic phenomena of the drug intolerance nor local toxic phenomena”.
In the case of calcitonin, the “calcium levels in the lens” value in data set [2] was “raises the calcium levels proportionally with the incubation times”.
